This is an account of results in ChEMBL document CHEMBL5532742, “Design and Synthesis of the Linezolid Bioisosteres to Resolve the Serotonergic Toxicity Associated with Linezolid” (ACS Med Chem Lett, 2024).

As a reminder, the MIC is the smallest concentration in the dilution series that meets the test's criterion for growth inhibition. The term IC50 denotes the concentration that gives 50% inhibition. As a reminder, the MIC50 is an inhibitory concentration at the 50% level, which refers to growth in some studies and to a panel of isolates in others.

Values after ≈ are worked out from the molar mass of the structure shown. Values joined by “and” are separate entries in the source; they are usually repeats but may differ in a detail not shown here. Equal entries are not always repeated.

In series [1] the test system is Mycobacterium tuberculosis. Put plainly: Antimycobacterial activity against Mycobacterium tuberculosis H37Rv assessed as prevention of bacterial growth measured after 7 days by alamar blue assay. The format is functional. The note with it: 168 h, time 7 day. (Alamar Blue is a resazurin reagent that responds to reducing activity.)
Series [2] addresses T1, Amine oxidase [flavin-containing] A (Homo sapiens, UniProt P21397).
T1 sequence (P21397 whole entry): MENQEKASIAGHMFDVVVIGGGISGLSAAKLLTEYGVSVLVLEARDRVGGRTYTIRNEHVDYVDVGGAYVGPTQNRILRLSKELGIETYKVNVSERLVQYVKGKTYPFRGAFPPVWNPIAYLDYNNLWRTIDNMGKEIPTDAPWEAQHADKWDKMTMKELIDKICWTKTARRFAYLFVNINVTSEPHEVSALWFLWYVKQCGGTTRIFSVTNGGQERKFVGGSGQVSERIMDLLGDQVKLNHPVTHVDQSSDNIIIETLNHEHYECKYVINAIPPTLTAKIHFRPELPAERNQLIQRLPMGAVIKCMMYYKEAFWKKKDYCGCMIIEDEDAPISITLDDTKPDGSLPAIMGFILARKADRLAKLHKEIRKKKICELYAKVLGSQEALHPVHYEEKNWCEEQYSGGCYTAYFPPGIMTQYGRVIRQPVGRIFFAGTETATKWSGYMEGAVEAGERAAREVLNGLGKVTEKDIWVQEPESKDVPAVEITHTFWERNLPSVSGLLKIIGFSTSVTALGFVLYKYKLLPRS
Put plainly: Inhibition of human recombinant MAO-A using kynuramine as substrate. The format is toxicity.

The target of series [3] is T2, Amine oxidase [flavin-containing] B (Homo sapiens, UniProt P27338).
T2 sequence (P27338 whole entry): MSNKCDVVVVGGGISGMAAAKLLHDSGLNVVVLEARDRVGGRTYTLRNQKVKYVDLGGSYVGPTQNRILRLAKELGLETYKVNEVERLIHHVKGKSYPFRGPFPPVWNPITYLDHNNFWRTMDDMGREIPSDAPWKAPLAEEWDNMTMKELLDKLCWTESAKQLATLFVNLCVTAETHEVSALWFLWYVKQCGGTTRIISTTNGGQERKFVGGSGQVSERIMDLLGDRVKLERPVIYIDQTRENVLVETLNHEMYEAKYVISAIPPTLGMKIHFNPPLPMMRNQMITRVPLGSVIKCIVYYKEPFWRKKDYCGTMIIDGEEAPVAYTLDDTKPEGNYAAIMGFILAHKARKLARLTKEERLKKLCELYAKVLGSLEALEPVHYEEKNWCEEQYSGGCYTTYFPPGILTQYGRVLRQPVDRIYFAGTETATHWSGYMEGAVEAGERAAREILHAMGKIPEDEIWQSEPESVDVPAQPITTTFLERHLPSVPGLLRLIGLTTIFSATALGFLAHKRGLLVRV
In words: Inhibition of human recombinant MAO-B using benzylamine as substrate. The format is toxicity.

Series [4] relates to Mycobacterium tuberculosis. Put plainly: Antimycobacterial activity against Mycobacterium tuberculosis clinical isolate without mutation incubated for 1 week by resazurin dye based fluorescence analysis. The format is functional. The note with it: time 1 weeks.
The target in another series is T3, MAO-B (Homo sapiens, UniProt P27338).
T3 sequence (P27338 whole entry): T2 sequence (P27338 whole entry)
Put plainly: Potency index, ratio of test compound IC50 to linezolid IC50 for inhibition of human recombinant MAO-B using benzylamine as substrate. The format is toxicity. The note with it: probe benzylamine, read-out: Ratio IC50.

In a further series the test system is Staphylococcus aureus. In words: Antibacterial activity against Staphylococcus aureus ATCC 25923. The format is functional.
For series [5], the target named is T2, Amine oxidase [flavin-containing] B. In words: Inhibition of human recombinant MAO-B using tyramine as substrate by ELISA. The format is toxicity. Background: In an ELISA, binding on a coated surface is turned into a signal by an enzyme label.
In series [6] the target is T1, Amine oxidase [flavin-containing] A. In words: Inhibition of human recombinant MAO-A using tyramine as substrate by ELISA. The format is toxicity.

In the case of `O=C1O[C@@H](CNS(=O)(=O)c2cccs2)CN1c1ccc(N2CCOCC2)c(F)c1`, in series [1], the minimum inhibitory concentration (MIC) came out at 1.76 µM (≈ 0.777 µg/mL). Also, the concentration for half-maximal inhibition (IC50) in series [2] is over 40 µM; in series [3] it was 27.3 µM. In series [4], the MIC50 was 4.01 µM (≈ 1.77 µg/mL).

As for `O=C(NC[C@H]1CN(c2ccc(N3CCOCC3)c(F)c2)C(=O)O1)C1CC1`, in series [1], the MIC was found to be 2.08 µM (≈ 0.756 µg/mL). For the same compound, the values for the 50% inhibitory concentration (IC50) in series [2] and in series [3] were over 40 µM and 30.3 µM, respectively. In series [4], this compound yielded an MIC50 of 1.11 µM (≈ 0.403 µg/mL).

For the compound `O=C(NC[C@H]1CN(c2ccc(N3CCOCC3)c(F)c2)C(=O)O1)c1cccs1`, the MIC in series [1] is 1.92 µM (≈ 0.778 µg/mL). Besides, the figures for the half-maximal inhibitory concentration (IC50) in series [2] and in series [3] were over 40 µM and 33.1 µM, respectively. For the same compound, the MIC50 in series [4] came out at 3.12 µM (≈ 1.27 µg/mL).

Regarding `CCS(=O)(=O)NC[C@H]1CN(c2ccc(N3CCOCC3)c(F)c2)C(=O)O1`, the minimum inhibitory concentration (MIC) in series [1] was 2.01 µM (≈ 0.779 µg/mL). Moreover, the 50% inhibitory concentration (IC50) in series [2] and in series [3] was over 40 µM throughout. In addition, the selectivity ratio at MAO-B came to 64.6. The MIC50 in series [4] was found to be 0.74 µM (≈ 0.287 µg/mL).

`O=C1O[C@H](Cn2ccnn2)CN1c1ccc(N2CCOCC2)c(F)c1` had an MIC in the series with Staphylococcus aureus of 1 µg/mL (≈ 2.88 µM). Moreover, the figures for the IC50 in series [5] and in series [6] were 15.4 µM and 31.9 µM, respectively.

`CS(=O)(=O)NC[C@H]1CN(c2ccc(N3CCOCC3)c(F)c2)C(=O)O1`: in series [1], the minimal inhibitory concentration (MIC) was 2.14 µM (≈ 0.799 µg/mL). Also, the figures for the concentration for half-maximal inhibition (IC50) in series [2] and in series [3] were over 40 µM and 2.95 µM, respectively. Moreover, in series [4], the MIC50 was found to be 1.11 µM (≈ 0.414 µg/mL).

In the case of `CCCCS(=O)(=O)NC[C@H]1CN(c2ccc(N3CCOCC3)c(F)c2)C(=O)O1`, in series [1], the minimum inhibitory concentration (MIC) is 1.87 µM and > 25 µg/mL. Moreover, the IC50 was over 40 µM in series [2] and 25.4 µM in series [3].

Turning to `CC(C)(C)c1ccc(S(=O)(=O)NC[C@H]2CN(c3ccc(N4CCOCC4)c(F)c3)C(=O)O2)cc1`, the MIC in series [1] was 1.58 µM and > 25 µg/mL. Moreover, the values for the half-maximal inhibitory concentration (IC50) in series [2] and in series [3] were 19.3 µM and 13.2 µM, respectively.

As for `O=C1O[C@@H](CNS(=O)(=O)C2CC2)CN1c1ccc(N2CCOCC2)c(F)c1`, in series [1], the MIC was 1.95 µM and > 25 µg/mL. For the same compound, the values for the IC50 in series [2] and in series [3] were over 40 µM and 11.4 µM, respectively.

Consider `NNC(=O)c1ccncc1` [ISONIAZID], for which, in series [4], the MIC50 was under 0.2 µM.

In the case of `CC(=O)NC[C@H]1CN(c2ccc(N3CCOCC3)c(F)c2)C(=O)O1` [LINEZOLID], the MIC in series [1] was 2.31 µM (≈ 0.779 µg/mL). In addition, in series [4], the MIC50 was determined as 0.34 µM (≈ 0.115 µg/mL).

As for `CO[C@H]1/C=C/O[C@@]2(C)Oc3c(C)c(O)c4c(O)c(c(/C=N/N5CCN(C)CC5)c(O)c4c3C2=O)NC(=O)/C(C)=C\C=C\[C@H](C)[C@H](O)[C@@H](C)[C@@H](O)[C@@H](C)[C@H](OC(C)=O)[C@@H]1C` [RIFAMPIN], the MIC50 in series [4] is under 0.04 µM.
